The target of one assay is human orexin 1 receptor (Homo sapiens (Human), UniProt O43613). The assay can be described thus: Human orexin 1 receptor radioligand binding ([3H]-SB674042 competition). As to conditions: CHO cells stably expressing human orexin 1 receptor; [3H]-SB674042 4 nM final; read-out: OR-1 Ki. In outline: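 CHO cells stably expressing human OX1R incubated 60 min at room temperature with [3H]-SB674042 and compounds (7 concentrations, 0.1 nM–10 μM; DMSO ≤0.1%) in PBS. Nonspecific binding defined with 10 μM of a reference urea antagonist; bound radioactivity measured by filtration and scintillation counting.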
human orexin 1 receptor, sequence (O43613 whole entry): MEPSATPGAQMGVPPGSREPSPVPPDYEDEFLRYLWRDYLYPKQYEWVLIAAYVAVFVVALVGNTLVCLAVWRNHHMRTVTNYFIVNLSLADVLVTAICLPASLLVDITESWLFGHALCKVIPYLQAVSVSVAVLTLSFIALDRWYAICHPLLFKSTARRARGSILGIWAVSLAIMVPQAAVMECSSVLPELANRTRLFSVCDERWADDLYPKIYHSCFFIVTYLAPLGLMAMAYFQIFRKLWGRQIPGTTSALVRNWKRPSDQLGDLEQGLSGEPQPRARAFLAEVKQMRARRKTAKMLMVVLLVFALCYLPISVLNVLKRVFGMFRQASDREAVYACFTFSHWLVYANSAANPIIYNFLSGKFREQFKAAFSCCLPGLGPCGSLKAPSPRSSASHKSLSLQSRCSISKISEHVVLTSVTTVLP

The target in the next assay is human orexin-2 receptor (Homo sapiens (Human), UniProt O43614). The assay can be described thus: Human orexin 2 receptor radioligand binding ([3H]-EMPA competition). As to conditions: HEK293 cells stably expressing human orexin-2 receptor; [3H]-EMPA 5 nM final; read-out: OR-2 Ki. In outline:
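Competition binding on HEK293 cells stably expressing human orexin-2 receptor, using 5 nM final [3H]-EMPA in PBS, compounds 0.1 nM to 10 μM (DMSO ≤0.1%). 60 min at room temperature, then filtration and scintillation counting; nonspecific binding defined with 10 μM of a reference antagonist.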

human orexin-2 receptor, sequence (O43614 whole entry): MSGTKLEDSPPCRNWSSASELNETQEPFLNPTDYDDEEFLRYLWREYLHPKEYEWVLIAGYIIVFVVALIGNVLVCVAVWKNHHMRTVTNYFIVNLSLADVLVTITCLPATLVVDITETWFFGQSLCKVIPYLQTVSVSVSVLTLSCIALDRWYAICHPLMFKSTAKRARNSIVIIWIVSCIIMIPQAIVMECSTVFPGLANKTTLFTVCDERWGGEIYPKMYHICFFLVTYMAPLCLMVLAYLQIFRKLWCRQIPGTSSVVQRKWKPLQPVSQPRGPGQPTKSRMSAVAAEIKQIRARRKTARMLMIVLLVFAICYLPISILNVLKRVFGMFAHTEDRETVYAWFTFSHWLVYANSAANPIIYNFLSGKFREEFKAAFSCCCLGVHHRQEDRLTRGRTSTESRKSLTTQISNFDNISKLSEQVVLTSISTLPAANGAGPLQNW

`CN(C)c1ccnc(N2C[C@@H]3CCN(C(=O)c4cccc(F)c4-c4ncccn4)C[C@@H]32)c1` [Example 143, 2-{(1R,6S)-3-[(3-Fluoro-2-pyrimidin-2-ylphenyl)carbonyl]-3,8-diazabicyclo[4.2.0]oct-8-yl}-N,N-dimethylpyridin-4-amine]: the Ki stood at 10 µM at human orexin 1 receptor and 9000 nM on human orexin-2 receptor.
For `CN(C)c1ccnc(N2C[C@@H]3CCN(C(=O)c4cccc(F)c4-n4nccn4)C[C@@H]32)c1` [Example 144, 2-[(1R,6S)-3-{[3-Fluoro-2-(2H-1,2,3-triazol-2-yl)phenyl]carbonyl}-3,8-diazabicyclo[4.2.0]oct-8-yl]-N,N-dimethylpyridin-4-amine], the Ki turned out to be 10 µM on human orexin 1 receptor and 2810 nM on human orexin-2 receptor.
Take `O=C(c1cccc(F)c1-n1nccn1)N1CC[C@H]2CN(c3cc(C(F)(F)F)ccn3)[C@H]2C1` [Example 145, (1R,6S)-3-{[3-Fluoro-2-(2H-1,2,3-triazol-2-yl)phenyl]carbonyl}-8-[4-(trifluoromethyl)pyridin-2-yl]-3,8-diazabicyclo[4.2.0]octane]: the Ki on human orexin 1 receptor is 3.3 µM; on human orexin-2 receptor it was 110 nM.
The matching figures for `COc1ccc(C(=O)N2CC[C@H]3CN(c4cc(C(F)(F)F)ccn4)[C@H]3C2)c(-n2nccn2)c1` [Example 146, (1R,6S)-3-{[4-Methoxy-2-(2H-1,2,3-triazol-2-yl)phenyl]carbonyl}-8-[4-(trifluoromethyl)pyridin-2-yl]-3,8-diazabicyclo[4.2.0]octane]: 9 µM and 299 nM.
For `Cc1cccc(C(=O)N2CC[C@H]3CN(c4cc(C(F)(F)F)ccn4)[C@H]3C2)c1-n1nccn1` [Example 147, (1R,6S)-3-{[3-Methyl-2-(2H-1,2,3-triazol-2-yl)phenyl]carbonyl}-8-[4-(trifluoromethyl)pyridin-2-yl]-3,8-diazabicyclo[4.2.0]octane], in that order: 0.793 µM and 91 nM.
For `Cc1cc(C)nc(N2C[C@@H]3CCN(C(=O)c4cccc(F)c4-n4nccn4)C[C@@H]32)c1` [Example 148, (1R,6S)-8-(4,6-Dimethylpyridin-2-yl)-3-{[3-fluoro-2-(2H-1,2,3-triazol-2-yl)phenyl]carbonyl}-3,8-diazabicyclo[4.2.0]octane], in that order: 0.845 µM and 36 nM.
On to `COc1ccc(C(=O)N2CC[C@H]3CN(c4cc(C)cc(C)n4)[C@H]3C2)c(-n2nccn2)c1` [Example 149, (1R,6S)-8-(4,6-Dimethylpyridin-2-yl)-3-{[4-methoxy-2-(2H-1,2,3-triazol-2-yl)phenyl]carbonyl}-3,8-diazabicyclo[4.2.0]octane], for which the values for the Ki on human orexin 1 receptor and at human orexin-2 receptor were 10 µM and 190 nM, respectively.
With `COc1ccc(-n2nccn2)c(C(=O)N2CC[C@H]3CN(c4cc(N(C)C)ccn4)[C@H]3C2)c1` [Example 150, 2-[(1R,6S)-3-{[5-Methoxy-2-(2H-1,2,3-triazol-2-yl)phenyl]carbonyl}-3,8-diazabicyclo[4.2.0]oct-8-yl]-N,N-dimethylpyridin-4-amine], the results for the inhibition constant Ki at human orexin 1 receptor and at human orexin-2 receptor were 10 µM and 532 nM, respectively.
On to `COc1ccc(-n2nccn2)c(C(=O)N2CC[C@H]3CN(c4cc(C)cc(C)n4)[C@H]3C2)c1` [Example 151, (1R,6S)-8-(4,6-Dimethylpyridin-2-yl)-3-{[5-methoxy-2-(2H-1,2,3-triazol-2-yl)phenyl]carbonyl}-3,8-diazabicyclo[4.2.0]octane], for which the Ki came to 0.341 µM on human orexin 1 receptor and 17 nM on human orexin-2 receptor.
With `O=C(c1cccc(F)c1-c1ncccn1)N1CC[C@H]2CN(c3cc(C(F)(F)F)ccn3)[C@H]2C1` [Example 152, (1R,6S)-3-[(3-Fluoro-2-pyrimidin-2-ylphenyl)carbonyl]-8-[4-(trifluoromethyl)pyridin-2-yl]-3,8-diazabicyclo[4.2.0]octane], the Ki came to 1.85 µM at human orexin 1 receptor and 223 nM at human orexin-2 receptor.
For the compound `Cc1cc(C)nc(N2C[C@@H]3CCN(C(=O)c4cccc(F)c4-c4ncccn4)C[C@@H]32)c1` [Example 153, (1R,6S)-8-(4,6-Dimethylpyridin-2-yl)-3-[(3-fluoro-2-pyrimidin-2-ylphenyl)carbonyl]-3,8-diazabicyclo[4.2.0]octane], the Ki was 0.687 µM at human orexin 1 receptor and 82 nM on human orexin-2 receptor.
The matching figures for `COc1ccc(Br)c(C(=O)N2CC[C@H]3CN(c4nc(C)cc(C)n4)[C@H]3C2)c1F` [Example 154, (1R,6S)-3-[(6-Bromo-2-fluoro-3-methoxyphenyl)carbonyl]-8-(4,6-dimethylpyrimidin-2-yl)-3,8-diazabicyclo[4.2.0]octane]: 1.2 µM and 140 nM.
For `Cc1cc(C)nc(N2C[C@@H]3CCN(C(=O)c4cccc(F)c4-n4cccn4)C[C@@H]32)n1` [Example 155, (1R,6S)-8-(4,6-Dimethylpyrimidin-2-yl)-3-{[3-fluoro-2-(1H-pyrazol-1-yl)phenyl]carbonyl}-3,8-diazabicyclo[4.2.0]octane], in that order: 1.53 µM and 57 nM.
For `COc1ccc(-c2ncccn2)c(C(=O)N2CC[C@H]3CN(c4nc(C)cc(C)n4)[C@H]3C2)c1F` [Example 156, (1R,6S)-8-(4,6-Dimethylpyrimidin-2-yl)-3-[(2-fluoro-3-methoxy-6-pyrimidin-2-ylphenyl)carbonyl]-3,8-diazabicyclo[4.2.0]octane], in that order: 0.86 µM and 185 nM.
Take `Cc1cc(C)nc(N2C[C@@H]3CCN(C(=O)c4cc(C)c(C)nc4-n4nccn4)C[C@@H]32)n1` [Example 157, (1R,6S)-8-(4,6-Dimethylpyrimidin-2-yl)-3-{[5,6-dimethyl-2-(2H-1,2,3-triazol-2-yl)pyridin-3-yl]carbonyl}-3,8-diazabicyclo[4.2.0]octane]: the Ki on human orexin 1 receptor amounted to 3.9 µM; on human orexin-2 receptor, 230 nM.
The matching figures for `Cc1cc(C)nc(N2C[C@@H]3CCN(C(=O)c4cc(C)c(C)nc4-n4ccnn4)C[C@@H]32)n1` [Example 158, (1R,6S)-8-(4,6-Dimethylpyrimidin-2-yl)-3-{[5,6-dimethyl-2-(1H-1,2,3-triazol-1-yl)pyridin-3-yl]carbonyl}-3,8-diazabicyclo[4.2.0]octane]: 3.2 µM and 170 nM.
Consider `Cc1cc(C)nc(N2C[C@@H]3CCN(C(=O)c4ccc(C(F)(F)F)nc4-n4ccnn4)C[C@@H]32)n1` [Example 159, (1R,6S)-8-(4,6-Dimethylpyrimidin-2-yl)-3-{[2-(1H-1,2,3-triazol-1-yl)-6-(trifluoromethyl)pyridin-3-yl]carbonyl}-3,8-diazabicyclo[4.2.0]octane], for which the Ki on human orexin 1 receptor came to 10 µM; on human orexin-2 receptor it was 540 nM.
Take `Cc1cnc(-n2nccn2)c(C(=O)N2CC[C@H]3CN(c4nc(C)cc(C)n4)[C@H]3C2)c1` [Example 160, (1R,6S)-8-(4,6-Dimethylpyrimidin-2-yl)-3-{[5-methyl-2-(2H-1,2,3-triazol-2-yl)pyridin-3-yl]carbonyl}-3,8-diazabicyclo[4.2.0]octane]: the Ki at human orexin 1 receptor was found to be 6 µM; on human orexin-2 receptor, 370 nM.
For `Cc1cnc(-n2ccnn2)c(C(=O)N2CC[C@H]3CN(c4nc(C)cc(C)n4)[C@H]3C2)c1` [Example 161, (1R,6S)-8-(4,6-Dimethylpyrimidin-2-yl)-3-{[5-methyl-2-(1H-1,2,3-triazol-1-yl)pyridin-3-yl]carbonyl}-3,8-diazabicyclo[4.2.0]octane], the inhibition constant (Ki) at human orexin 1 receptor came to 4.5 µM; at human orexin-2 receptor it was 280 nM.
For `COc1ccc(C(=O)N2CC[C@H]3CN(c4nc(C)cc(C)n4)[C@H]3C2)c(-n2nccn2)n1` [Example 162, (1R,6S)-8-(4,6-Dimethylpyrimidin-2-yl)-3-{[6-methoxy-2-(2H-1,2,3-triazol-2-yl)pyridin-3-yl]carbonyl}-3,8-diazabicyclo[4.2.0]octane], in that order: 10 µM and 380 nM.
The matching figures for `COc1ccc(C(=O)N2CC[C@H]3CN(c4nc(C)cc(C)n4)[C@H]3C2)c(-n2ccnn2)n1` [Example 163, (1R,6S)-8-(4,6-Dimethylpyrimidin-2-yl)-3-{[6-methoxy-2-(1H-1,2,3-triazol-1-yl)pyridin-3-yl]carbonyl}-3,8-diazabicyclo[4.2.0]octane]: 10 µM and 700 nM.
The matching figures for `Cc1cc(C)nc(N2C[C@@H]3CCN(C(=O)c4cc(F)ccc4Br)C[C@@H]32)n1` [Example 164, (1R,6S)-3-[(2-Bromo-5-fluorophenyl)carbonyl]-8-(4,6-dimethylpyrimidin-2-yl)-3,8-diazabicyclo[4.2.0]octane]: 3.9 µM and 190 nM.
`Cc1cc(C)nc(N2C[C@@H]3CCN(C(=O)c4cc(F)ccc4-c4cncnc4)C[C@@H]32)n1` [Example 165, (1R,6S)-8-(4,6-Dimethylpyrimidin-2-yl)-3-[(5-fluoro-2-pyrimidin-5-ylphenyl)carbonyl]-3,8-diazabicyclo[4.2.0]octane]: the Ki at human orexin 1 receptor was 10 µM; on human orexin-2 receptor it was 550 nM.
The matching figures for `Cc1cc(C)nc(N2C[C@@H]3CCN(C(=O)c4cc(F)ccc4-c4ccc(N(C)C)nc4)C[C@@H]32)n1` [Example 166, 5-(2-{[(1R,6S)-8-(4,6-Dimethylpyrimidin-2-yl)-3,8-diazabicyclo[4.2.0]oct-3-yl]carbonyl}-4-fluorophenyl)-N,N-dimethylpyridin-2-amine]: 3.84 µM and 72 nM.

As a reminder, the Ki is a dissociation constant, usually derived from enzyme kinetics or from competition with a known ligand.
